The results in this text go back to US4381311A, “Antiinflammatory 4,5-diaryl-α-(polyhalomethyl)-2-thiophenemethanols” (E. I. Du Pont de Nemours and Company, priority 1981, dated 1983).

The first test deals with adjuvant-induced arthritis in rats. In words: Established adjuvant-induced arthritis in rats (paw volume of uninjected left hind paw). It is filed as in vivo, Charles River Lewis male rats. The following applies: Rattus norvegicus, 168 h; oral gavage daily, 7 days; established adjuvant-induced arthritis, Lewis male rats; ED50% by inspection of dose-response regression lines; read-out: ED50% Decrease From Control Paw Volume. Here is the method: A procedure for detecting and comparing the antiinflammatory activity of compounds in this series and standard drugs for which there is a good correlation with human efficacy is the adjuvant-induced arthritis test in rats.
The test procedure employed for determining antiinflammatory activity is described below.
ESTABLISHED ADJUVANT-INDUCED ARTHRITIS IN RATS
Charles River Lewis male rats (130-150 grams) are injected subcutaneously in plantar area of the right hind paw with 0.1 ml of adjuvant (Difco heat-killed, lyophilized Mycobacterium butyricum suspended in mineral oil 5 mg/ml). 20 Non-arthritic controls are injected with mineral oil. The animals are held for 2 weeks to allow development of arthritis. Paw volumes (uninjected, left hind paw) are measured and the adjuvant injected rats are culled and distributed to treatment groups of 10 of equal disease severity. Non-arthritic controls are distributed to 2 groups of 10. The rats are given oral doses of compound or PVA-Acacia (Polyvinyl Alcohol 1%, Gum Acacia, U.S.P. 5%, Methylparaben 0.5%) (10 ml/kg) by gavage on that day and on the 6 following days. One day after the last dose the paw volumes (uninjected, left hind paw) are measured using a Ugo Basile Volume Differential Meter Model 7101. [formula]
Dose-response regression lines of the % decrease are plotted on semi-log paper by visual fit and the ED50% decrease from control paw volume is determined by inspection.
As for `OC(c1cc(-c2ccc(F)cc2)c(-c2ccc(F)cc2)s1)(C(F)(F)F)C(F)(F)F` [Example 1, 4,5-Bis(4-fluorophenyl)-α,α-bis(trifluoromethyl)-2-thiophenemethanol], the ED50 is 10 mg/kg.

With `COc1ccc(-c2cc(C(O)(C(F)(F)F)C(F)(F)F)sc2-c2ccc(SC)cc2)cc1` [Example 4, 4-(4-Methoxyphenyl)-5-(4-methylthiophenyl)-α,α-bis(trifluoromethyl)-2-thiophenemethanol], the ED50 came out at 10 mg/kg.

With `OC(c1cc(-c2ccc(F)cc2)c(-c2ccc(Cl)cc2)s1)(C(F)(F)F)C(F)(F)F` [Example 5, 5-(4-Chlorophenyl)-4-(4-fluorophenyl)-α,α-bis(trifluoromethyl)-2-thiophenemethanol], the ED50 amounted to 9 mg/kg.

Take `OC(c1cc(-c2ccccc2)c(-c2ccccc2)s1)(C(F)(F)F)C(F)(F)F` [Example 6]: the ED50 stood at 21 mg/kg.

Take `CC(O)(c1cc(-c2ccc(F)cc2)c(-c2ccc(F)cc2)s1)C(F)(F)F` (stereo not drawn) [Example 7, 4,5-Bis(4-fluorophenyl)-α-methyl-α-trifluoromethyl-2-thiophenemethanol]: the ED50 came to 5.5 mg/kg.

For the molecule `OC(c1cc(-c2ccc(F)cc2)c(-c2ccc(F)cc2)s1)(C(F)(F)Cl)C(F)(F)Cl` [Example 8, 4,5-Bis(4-fluorophenyl)-α,α-bis(chlorodifluoromethyl)-2-thiophenemethanol], the median effective dose (ED50) was found to be 4.5 mg/kg.

For the molecule `OC(c1cc(-c2ccc(F)cc2)c(-c2ccc(F)cc2)s1)(C(F)F)C(F)(F)F` (stereo not drawn) [Example 9], the ED50 amounted to 18 mg/kg.

For the molecule `OC(c1cc(-c2ccc(F)cc2)c(-c2ccc(F)cc2)s1)(C(F)(F)F)C(F)(F)Cl` (stereo not drawn) [Example 10, 4,5-Bis(4-fluorophenyl)-α-chlorodifluoromethyl-α-trifluoromethyl-2-thiophenemethanol], the ED50 worked out at 6.8 mg/kg.

In the case of `Cc1c(C(O)(C(F)(F)Cl)C(F)(F)Cl)sc(-c2ccc(F)cc2)c1-c1ccc(F)cc1` [Example 27, 3-Methyl-4,5-bis(4-fluorophenyl)-α,α-bis(chlorodifluoromethyl)-2-thiophenemethanol], the ED50 was determined as 12 mg/kg.

On to `CCCCC1C(=O)N(c2ccccc2)N(c2ccccc2)C1=O` [Phenylbutazone, reference compound], for which the ED50 came to 10 mg/kg.

The test is the same for the next values; noted with them: Rattus norvegicus, po, 168 h, read-out: ED50% Decrease From Control Paw Volume.
Consider `CC(=O)Oc1ccccc1C(=O)O` [Aspirin, reference compound], for which the ED50 is 270 mg/kg.

Turning to `COc1ccc2c(c1)c(CC(=O)O)c(C)n2C(=O)c1ccc(Cl)cc1` [Indomethacin, reference compound], the ED50 stood at 0.25 mg/kg.

Still in this test, the particulars now being: daily oral dose 27 mg/kg, 7 days; established adjuvant-induced arthritis, rats; p < 0.1 (Ex. 2), p < 0.001 (Ex. 3) vs control, Student's t test.
In the case of `OC(c1cc(-c2ccc(F)cc2)c(-c2ccc(F)cc2)s1)(C(F)(F)Cl)C(F)(Cl)Cl` (stereo not drawn) [Example 2], the “Percent Decrease From Control Paw Volume” value is on record as 20%.

On to `COc1ccc(-c2cc(C(O)(C(F)(F)F)C(F)(F)F)sc2-c2ccc(OC)cc2)cc1` [Example 3], for which the “Percent Decrease From Control Paw Volume” value is recorded as 47%.

Still in this test, the particulars now being: daily oral dose 51 mg/kg, 7 days; established adjuvant-induced arthritis, rats; p < 0.001 vs control, Student's t test.
As to `CC(=O)OC(c1cc(-c2ccc(F)cc2)c(-c2ccc(F)cc2)s1)(C(F)(F)Cl)C(F)(F)Cl` [Example 29, 4,5-Bis(4-fluorophenyl)-α,α-bis(chlorodifluoromethyl)-2-thiophenemethanol, acetate], the “Percent Decrease From Control Paw Volume” value is reported as 31%.
